How the values were obtained:
Type in all cases: biochemical
thrombin = target: T1, thrombin (Homo sapiens, UniProt P00734); test: Determination of selectivity: thrombin inhibition, chromogenic substrate GPR assay; details: fold selectivity for FXIIa over thrombin
T1 construct: FXa (5 nM) and thrombin (5 nM)
Experimental: (§1) The activities of the compounds of the invention have been determined in vitro using the following assays protocols for the screening of activity of FXIIa and other proteases. Each of these assays were performed in a purified system employing the use of chromogenic assays in microplate plate wells. Chromogenic peptide substrates mimicking natural protein substrates are attached via an amide bond to a chromogenic group. Paranitroaniline (pNA) is released from the peptide following catalyses by the proteolytic enzyme; the absorbance increases and can be monitored at 405 nm.
(§2) All compounds were dissolved in 100% (v/v) DMSO to a stock concentration of 10 mM, the highest concentration of compound used in each assay is 500 μM. The final concentrations of DMSO were 5% (v/v) in 50 mM Tris 137 mM NaC pH 7.4. Where no test compound was added a final concentration of 5% DMSO was employed.
(§3) Determination of Selectivity
(§4) To determine selectivity of test compounds, these test compounds were assayed for inhibitory activity against other serine proteases including FXa and thrombin. Essentially compounds at increasing concentrations were incubated with each enzyme: FXa (5 nM) and thrombin (5 nM), for 10 mins at 37° C. followed the appropriate chromogenic substrate, S2765 ([…]), and GPR ([…]) respectively in 50 mM Tris, 137 mM NaCl, pH 7.4. Chromogenic substrates S2765 was from Chromogenix, and GPR from Bachem. Kinetic readings at 405 nm were monitored every 12 secs for a total duration of 3 hours at 37° C. Gradients of initial rates were determined and employed to calculate IC50 values. Values of IC50 were converted to Ki values based on the formula: Ki=IC50/(1+[Substrate]/Km)
(§5) Where [Substrate] denotes the concentration of substrate used in the assay and Km is the determined value of each enzyme with its own substrate.
(§6) The fold selectivity for FXIIa over thrombin for the compounds of the invention has been categorised based on the fold selectivity values, the categories being “+”, “++” and “+++”. The category “+” refers to fold selectivity values less than 10. The category “++” refers to a fold selectivity value of 10 to 100. The category “+++” refers to fold selectivity values greater than 100.

FXa = FXa (Homo sapiens, UniProt P00742); test: Determination of selectivity: FXa inhibition, chromogenic substrate S2765 assay; details: fold selectivity for FXIIa over FXa
FXa, sequence (P00742 235-488 limits assumed): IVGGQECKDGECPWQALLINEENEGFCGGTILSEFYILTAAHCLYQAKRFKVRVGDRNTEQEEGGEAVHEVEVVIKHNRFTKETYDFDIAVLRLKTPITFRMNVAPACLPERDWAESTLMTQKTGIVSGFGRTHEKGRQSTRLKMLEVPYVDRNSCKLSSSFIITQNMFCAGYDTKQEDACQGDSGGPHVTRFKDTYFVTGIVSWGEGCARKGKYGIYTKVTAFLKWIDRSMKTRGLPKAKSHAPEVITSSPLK
FXa, sequence (P00742 41-179 partner limits assumed): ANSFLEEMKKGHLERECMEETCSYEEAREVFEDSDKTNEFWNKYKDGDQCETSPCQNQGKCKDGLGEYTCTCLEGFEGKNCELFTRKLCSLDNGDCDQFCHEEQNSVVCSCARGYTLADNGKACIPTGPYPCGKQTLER
Experimental: as §1, §2, §3, §4, §5, §6
The fold selectivity for FXIIa over FXa for the compounds of the invention has been categorised based on the fold selectivity values, the categories being “o”, “oo” and “ooo”. The category “o” refers to fold selectivity values less than 10. The category “oo” refers to a fold selectivity value of 10 to 100. The category “ooo” refers to fold selectivity values greater than 100.

FXIIa = target: T2, FXIIa (Homo sapiens, UniProt P00748); test: Determination of Factor XIIa inhibition, chromogenic substrate S-2302 assay; details: human FXIIa alpha
T2 sequence (P00748 373-615 limits assumed): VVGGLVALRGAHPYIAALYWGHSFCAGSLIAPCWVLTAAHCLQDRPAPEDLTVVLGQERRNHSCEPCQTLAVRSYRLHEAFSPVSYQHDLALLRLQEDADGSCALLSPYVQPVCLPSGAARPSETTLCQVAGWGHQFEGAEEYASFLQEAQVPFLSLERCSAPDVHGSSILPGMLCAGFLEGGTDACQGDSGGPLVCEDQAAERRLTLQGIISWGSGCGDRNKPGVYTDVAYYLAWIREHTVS
T2 sequence (P00748 20-372 partner limits assumed): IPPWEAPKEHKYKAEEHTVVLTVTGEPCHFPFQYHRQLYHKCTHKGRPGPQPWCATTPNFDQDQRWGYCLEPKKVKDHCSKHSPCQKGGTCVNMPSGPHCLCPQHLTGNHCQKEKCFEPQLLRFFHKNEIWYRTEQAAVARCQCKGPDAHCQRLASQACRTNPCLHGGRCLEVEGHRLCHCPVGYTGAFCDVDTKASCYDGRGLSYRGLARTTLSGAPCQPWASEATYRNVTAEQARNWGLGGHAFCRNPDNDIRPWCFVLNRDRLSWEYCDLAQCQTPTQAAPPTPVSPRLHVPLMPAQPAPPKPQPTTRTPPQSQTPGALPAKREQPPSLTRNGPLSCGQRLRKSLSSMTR
Experimental: as §1, §2
Determination of Factor XIa Inhibition
Factor XIa activity was measured using a chromogenic substrate S-2302 (Chromogenix). Various concentrations of compound were incubated with 10 nM of FXIIa and incubated at 37° C. for 10 minutes in 50 mM Tris, 137 mM NaCl, pH 7.4, prior to the addition of a final concentration of 450 µM S-2302 chromogenic substrate. Kinetic readings at 405 nm were monitored every 12 secs for a total duration of 3 hours at 37° C. Gradients of initial rates were determined and employed to calculate IC50 values. Values of IC50 were converted to Ki values based on the formula: Ki=IC50/(1+[Substrate]/Km).
The activity of the compounds of the invention has been categorised based on the Ki values, the categories being “*”, “**” and “***”. […] The category “**” refers to compounds with a Ki value of 0.2 μM to 2 μM.

Compound	Thrombin (human)/FXIIa alpha (human) (thrombin)	FXa (human)/FXIIa alpha (human) (FXa)	Ki (FXIIa) [µM]
Cn1nnc2cc(CNC(=O)[C@@H]3C[C@@H](Cc4cccc(F)c4)CN3C(=O)[C@H]3C[C@@H](c4ccccc4)CN3)ccc21 [Example M05327]	++ (fold selectivity value of 10 to 100)	∘	> 2
COc1ccc(C[C@@H]2C[C@@H](C(=O)NCc3ccc4c(c3)nnn4C)N(C(=O)[C@H]3C[C@@H](c4ccccc4)CN3)C2)cc1F [Example M05352]	+++ (fold selectivity values greater than 100)	∘∘∘	0.2 to 2
COc1ccc(C[C@@H]2C[C@@H](C(=O)NCc3cc4cnccc4[nH]3)N(C(=O)[C@H](N)CCC(=O)N3CCCC3)C2)cc1 [Example M00957]	+++ (fold selectivity values greater than 100)	∘∘∘	< 0.2
COc1ccc(C[C@@H]2C[C@@H](C(=O)NCc3ccc4c(c3)nnn4C)N(C(=O)[C@H](N)CCC(=O)N3C4CCC3CNC4)C2)cc1 [Example M05420]	+++ (fold selectivity values greater than 100)	∘∘∘	< 0.2
Cn1nnc2cc(CNC(=O)[C@@H]3C[C@H](CC4CCOCC4)CN3C(=O)[C@H](N)CCC(=O)N3CCCC3)ccc21 [Example M05293]	++ (fold selectivity value of 10 to 100)	∘∘	> 2
COc1ccc(C[C@@H]2C[C@@H](C(=O)NCc3ccc4c(c3)nnn4C)N(C(=O)[C@H]3C[C@@H](c4cccnc4)CN3)C2)cc1 [Example M05354]	+++ (fold selectivity values greater than 100)	∘∘∘	0.2 to 2
Cn1nnc2cc(CNC(=O)[C@@H]3CC(Cc4cccc(C#N)c4)CN3C(=O)[C@H](N)CCC(=O)N3CCCC3)ccc21 (stereo partly drawn) [Example M05319]	+++ (fold selectivity values greater than 100)	∘∘∘	0.2 to 2
Cn1nnc2cc(CNC(=O)[C@@H]3C[C@@H](NC(=O)c4ccccc4)CN3C(=O)[C@H](N)CCc3ccccc3)ccc21 [Example M05179]	++ (fold selectivity value of 10 to 100)	∘∘	> 2
NCc1ccc(CNC(=O)[C@@H]2C[C@H](O)CN2C(=O)[C@H](N)CCc2ccccc2)cc1 [Example M00626]	++ (fold selectivity value of 10 to 100)	∘∘	> 2
Cc1ccccc1CC[C@@H](N)C(=O)N1CCC[C@H]1C(=O)NCc1ccc(CN)cc1 [Example M00760]	+ (fold selectivity values less than 10)	∘∘	> 2
COc1ccc(C[C@@H]2C[C@@H](C(=O)NCc3ccc4c(c3)nnn4C)N(C(=O)C3NCCc4cc(OC)ccc43)C2)cc1 (stereo partly drawn) [Example M05442]	+++ (fold selectivity values greater than 100)	∘∘∘	0.2 to 2
Cn1nnc2cc(CNC(=O)[C@@H]3C[C@@H](Cc4ccc(Br)cc4)CN3C(=O)[C@H](N)CCC(=O)N3CCCC3)ccc21 [Example M05326]	+++ (fold selectivity values greater than 100)	∘∘∘	< 0.2
Cn1nnc2cc(CNC(=O)[C@@H]3C[C@@H](Cc4ccc(Br)cc4)CN3C(=O)[C@H]3C[C@@H](c4ccccc4)CN3)ccc21 [Example M05342]	++ (fold selectivity value of 10 to 100)	∘∘∘	0.2 to 2
Cn1nnc2cc(CNC(=O)[C@@H]3C[C@H](NCc4cccc(C(F)(F)F)c4)CN3C(=O)[C@H](N)CCc3ccccc3)ccc21 [Example M05159]	++ (fold selectivity value of 10 to 100)	∘∘	> 2
Cn1nnc2cc(CNC(=O)[C@@H]3C[C@@H](Cc4ccc(S(C)(=O)=O)cc4)CN3C(=O)[C@H](N)CCC(=O)N3CCCC3)ccc21 [Example M05384]	+++ (fold selectivity values greater than 100)	∘∘∘	0.2 to 2
COc1cc(CNC(=O)[C@@H]2C[C@@H](C)CN2C(=O)[C@H](N)CCc2ccccc2)ccc1CN [Example M05074]	+ (fold selectivity values less than 10)	∘∘∘	0.2 to 2
NCc1ccc(CNC(=O)[C@@H]2C[C@@H](Cc3cccc(Cl)c3)CN2C(=O)[C@H](N)CCc2ccccc2)cc1 [Example M05130]	++ (fold selectivity value of 10 to 100)	∘∘∘	0.2 to 2
CC(=O)N[C@H]1C[C@@H](C(=O)NCc2ccc3c(c2)nnn3C)N(C(=O)[C@H](N)CCc2ccccc2)C1 [Example M05144, (2S,4S)-4-Acetylamino-1-((R)-2-amino-4-phenyl-butyryl)-pyrrolidine-2-carboxylic acid (1-methyl-1H-benzotriazol-5-ylmethyl)-amide]			> 2
COc1ccc(C[C@@H]2C[C@@H](C(=O)NCc3ccc4c(c3)nnn4C)N(C(=O)C(N)CC(C)(C)c3ccccc3)C2)cc1 (stereo partly drawn) [Example M05416]			> 2
COc1ccc(C[C@@H]2C[C@@H](C(=O)NCc3ccc4c(c3)nnn4C)N(C(=O)C(N)CC(C)(C)c3ccccc3)C2)cc1 (stereo partly drawn) [Example M05415]			> 2
Cn1nnc2cc(CNC(=O)[C@@H]3C[C@@H](Oc4ccccc4)CN3C(=O)[C@H](N)CCc3ccccc3)ccc21 [Example M00948]			> 2
COc1ccc(C[C@@H]2C[C@@H](C(=O)NCc3ccc4c(c3)nnn4C)N(C(=O)[C@H]3CC(c4cnccc4C)CN3)C2)cc1 (stereo partly drawn) [Example M05408]			> 2
COc1ccc(C[C@@H]2C[C@@H](C(=O)NCc3ccc4c(c3)nnn4C)N(C(=O)[C@H]3CC(c4cnccc4C(F)(F)F)CN3)C2)cc1 (stereo partly drawn) [Example M05398]			> 2

From US12336991B2, “Factor XIIA inhibitors” (UNIVERSITY OF LEEDS, priority 2018, dated 2025)
